Measurements from PMC8811472, “Systematic In Vitro Evaluation of a Library of Approved and Pharmacologically Active Compounds for the Identification of Novel Candidate Drugs for KMT2A-Rearranged Leukemia” (Frontiers in Oncology, 2022).

What was measured:
[1] = tested on: THP-1 and REH versus 2-Cl-ATP-sensitive KMT2A-r cells; assay: Resazurin-based viability assays of nucleoside analogs in leukemia cell line panel; set-up: species or system human
Procedure: (§1) The cytotoxicity of drugs was assessed through resazurin-based assays and the inhibitory concentration resulting in 50% reduction of cell survival relative to control (IC50) was calculated as previously described ([7]). In synergy studies, cells were exposed to a dilution series of compounds, as single agents or in combination, in resazurin-based assays (72 hours) as described ([8]–[10]). The occurrence of synergy was determined with the Bliss Independence model as previously described ([8]–[10]). Bliss Prediction curves indicated the predicted percentage viability of the cells when exposed to the combination of compounds if both compounds work additively together. Synergy was visualised as the presence of a lower cell viability upon combination of two compounds compared to the viability predicted based on the presence of an additive effect of the compounds (i.e., the viability curve of the combination runs below the Bliss Prediction curve). The percentage of apoptotic cells was assessed by annexin V and 7-Aminoactinomycin D (7-AAD) (BD Biosciences, Australia) flow cytometry as previously described ([7]).

[2] = tested on: MCF-7 cells; assay: 72-hour resazurin-based cytotoxicity assay, MCF-7; assay type: cell-based, human; conditions: Homo sapiens, MCF7, MCF-7, breast adenocarcinoma
Procedure: (§2) All cell lines used in this study were mycoplasma-free and have been authenticated using STR profiling. Cells were cultured as previously described ([7], [8]). Characteristics of the leukemia cell lines used in this study are described in Supplementary Table 1 . Peripheral blood mononuclear cells from healthy donors were purchased from Australian Red Cross.
as §1, with “The percentage of apoptotic cells was assessed by annexin V and 7-Aminoactinomycin D (7-AAD) (BD Biosciences, Australia) flow cytometry as previously described ([7]).” left out

[3] = tested on: PER-703 cells; assay: 72-hour resazurin-based cytotoxicity assay, PER-703; assay type: cell-based, human; conditions: Homo sapiens, PER-703, KMT2A-r t(1;11), infant ALL derived
Procedure: as §2
as §1, with “The percentage of apoptotic cells was assessed by annexin V and 7-Aminoactinomycin D (7-AAD) (BD Biosciences, Australia) flow cytometry as previously described ([7]).” left out

[4] = tested on: SEMK2 cells; assay: 72-hour resazurin-based cytotoxicity assay, SEMK2; set-up: species or system human; conditions: Homo sapiens, SEMK2, KMT2A-r t(4;11), pre-B cell childhood ALL
Procedure: as §2, §1

[5] = tested on: KOPN-8 cells; assay: 72-hour resazurin-based cytotoxicity assay, KOPN-8; set-up: species or system human; conditions: Homo sapiens, KOPN-8, KMT2A-r t(11;19), infant pre-B cell ALL
Procedure: as §2
as §1, with “The percentage of apoptotic cells was assessed by annexin V and 7-Aminoactinomycin D (7-AAD) (BD Biosciences, Australia) flow cytometry as previously described ([7]).” left out

[6] = tested on: KMT2A-r and CALM-AF10 translocated leukemia cell lines; assay: Cytotoxicity in expanded cell line panel (range over sensitive lines); assay type: cell-based; conditions: Homo sapiens; 9 out of 11 KMT2A-r leukemia cell lines
Procedure: as §2
as §1, with “The percentage of apoptotic cells was assessed by annexin V and 7-Aminoactinomycin D (7-AAD) (BD Biosciences, Australia) flow cytometry as previously described ([7]).” left out

[7] = tested on: PER-826 cells; assay: 72-hour resazurin-based cytotoxicity assay, PER-826; assay type: cell-based, human; conditions: Homo sapiens, PER-826, KMT2A-r complex t(11;19), infant ALL
Procedure: as §2
as §1, with “The percentage of apoptotic cells was assessed by annexin V and 7-Aminoactinomycin D (7-AAD) (BD Biosciences, Australia) flow cytometry as previously described ([7]).” left out

[8] = tested on: CEM cells; assay: 72-hour resazurin-based cytotoxicity assay, CEM; set-up: species or system human; conditions: Homo sapiens, CCRF-CEM, KMT2A-wt, childhood T-cell ALL
Procedure: as §2, §1

[9] = tested on: BE(2)C cells; assay: 72-hour resazurin-based cytotoxicity assay, BE(2)C; assay type: cell-based, human; conditions: Homo sapiens, childhood neuroblastoma
Procedure: as §2
as §1, with “The percentage of apoptotic cells was assessed by annexin V and 7-Aminoactinomycin D (7-AAD) (BD Biosciences, Australia) flow cytometry as previously described ([7]).” left out

[10] = tested on: REH cells; assay: 72-hour resazurin-based cytotoxicity assay, REH; set-up: species or system human; conditions: Homo sapiens, KMT2A-wt, pre-B cell ALL
Procedure: as §2, §1

[11] = tested on: U937 cells; assay: 72-hour resazurin-based cytotoxicity assay, U937; assay type: cell-based, human; conditions: Homo sapiens, U-937, U937, CALM-AF10, AML
Procedure: as §2
as §1, with “The percentage of apoptotic cells was assessed by annexin V and 7-Aminoactinomycin D (7-AAD) (BD Biosciences, Australia) flow cytometry as previously described ([7]).” left out

[12] = tested on: LNCaP cells; assay: 72-hour resazurin-based cytotoxicity assay, LNCaP; assay type: cell-based, human; conditions: Homo sapiens, prostate carcinoma
Procedure: as §2
as §1, with “The percentage of apoptotic cells was assessed by annexin V and 7-Aminoactinomycin D (7-AAD) (BD Biosciences, Australia) flow cytometry as previously described ([7]).” left out

[13] = tested on: HEY cells; assay: 72-hour resazurin-based cytotoxicity assay, HEY; assay type: cell-based, human; conditions: Homo sapiens, ovarian carcinoma
Procedure: as §2
as §1, with “The percentage of apoptotic cells was assessed by annexin V and 7-Aminoactinomycin D (7-AAD) (BD Biosciences, Australia) flow cytometry as previously described ([7]).” left out

[14] = tested on: H460 cells; assay: 72-hour resazurin-based cytotoxicity assay, H460; assay type: cell-based, human; conditions: Homo sapiens, NCI-H460, H460, lung carcinoma
Procedure: as §2
as §1, with “The percentage of apoptotic cells was assessed by annexin V and 7-Aminoactinomycin D (7-AAD) (BD Biosciences, Australia) flow cytometry as previously described ([7]).” left out

[15] = tested on: PER-785 cells; assay: 72-hour resazurin-based cytotoxicity assay, PER-785; assay type: cell-based, human; conditions: Homo sapiens, PER-785, KMT2A-r t(4;11), infant ALL
Procedure: as §2
as §1, with “The percentage of apoptotic cells was assessed by annexin V and 7-Aminoactinomycin D (7-AAD) (BD Biosciences, Australia) flow cytometry as previously described ([7]).” left out

[16] = tested on: peripheral blood mononuclear cells from healthy donors; assay: 72-hour resazurin-based viability assay, PBMC from healthy donors; assay type: cell-based, human; conditions: Homo sapiens, PBMC, 72 h, 72 h resazurin
Procedure: as §2, §1

[17] = tested on: PER-490 cells; assay: 72-hour resazurin-based cytotoxicity assay, PER-490; assay type: cell-based, human; conditions: Homo sapiens, PER-490, KMT2A-r t(4;11), infant ALL
Procedure: as §2
as §1, with “The percentage of apoptotic cells was assessed by annexin V and 7-Aminoactinomycin D (7-AAD) (BD Biosciences, Australia) flow cytometry as previously described ([7]).” left out

[18] = tested on: MOLM-13 cells; assay: 72-hour resazurin-based cytotoxicity assay, MOLM-13; assay type: cell-based, human; conditions: Homo sapiens, MOLM-13, KMT2A-r t(9;11), AML
Procedure: as §2, §1

[19] = tested on: WI-38 cells; assay: 72-hour resazurin-based cytotoxicity assay, WI-38; assay type: cell-based, human; conditions: Homo sapiens, WI-38, non-malignant, normal lung
Procedure: as §2
as §1, with “The percentage of apoptotic cells was assessed by annexin V and 7-Aminoactinomycin D (7-AAD) (BD Biosciences, Australia) flow cytometry as previously described ([7]).” left out

[20] = tested on: MV4;11 cells; assay: 72-hour resazurin-based cytotoxicity assay, MV4;11; assay type: cell-based, human; conditions: Homo sapiens, MV4;11, KMT2A-r t(4;11), childhood AML
Procedure: as §2
as §1, with “The percentage of apoptotic cells was assessed by annexin V and 7-Aminoactinomycin D (7-AAD) (BD Biosciences, Australia) flow cytometry as previously described ([7]).” left out

[21] = tested on: MRC-5 cells; assay: 72-hour resazurin-based cytotoxicity assay, MRC-5; assay type: cell-based, human; conditions: Homo sapiens, MRC5, MRC-5, non-malignant, normal lung
Procedure: as §2, §1

[22] = tested on: KP-MO-TS cells; assay: 72-hour resazurin-based cytotoxicity assay, KP-MO-TS; assay type: cell-based, human; conditions: Homo sapiens, CALM-AF10, AML
Procedure: as §2
as §1, with “The percentage of apoptotic cells was assessed by annexin V and 7-Aminoactinomycin D (7-AAD) (BD Biosciences, Australia) flow cytometry as previously described ([7]).” left out

[23] = tested on: PER-485 cells; assay: 72-hour resazurin-based cytotoxicity assay, PER-485; assay type: cell-based, human; conditions: PER-485, KMT2A-r t(4;11), infant ALL derived
Procedure: as §2, §1

[24] = tested on: THP-1 cells; assay: 72-hour resazurin-based cytotoxicity assay, THP-1; assay type: cell-based, human; conditions: Homo sapiens, THP-1, KMT2A-r t(9;11), infant AML
Procedure: as §2, §1

[25] = tested on: KELLY cells; assay: 72-hour resazurin-based cytotoxicity assay, KELLY; assay type: cell-based, human; conditions: Homo sapiens, neuroblastoma
Procedure: as §2
as §1, with “The percentage of apoptotic cells was assessed by annexin V and 7-Aminoactinomycin D (7-AAD) (BD Biosciences, Australia) flow cytometry as previously described ([7]).” left out

[26] = tested on: PER-485 cells; assay: Annexin V/7-AAD flow cytometry, PER-485; assay type: cell-based, human; conditions: KMT2A-r leukemia cells (PER-485)
Procedure: as §1

[27] = tested on: RS4;11 cells; assay: 72-hour resazurin-based cytotoxicity assay, RS4;11; set-up: species or system human; conditions: RS4;11, KMT2A-r t(4;11), pre-B cell ALL
Procedure: as §2, §1

[28] = tested on: 27/87 cells; assay: 72-hour resazurin-based cytotoxicity assay, 27/87; assay type: cell-based, human; conditions: Homo sapiens, 27/87, endometrioid ovarian cancer
Procedure: as §2
as §1, with “The percentage of apoptotic cells was assessed by annexin V and 7-Aminoactinomycin D (7-AAD) (BD Biosciences, Australia) flow cytometry as previously described ([7]).” left out

[29] = tested on: Jurkat cells; assay: 72-hour resazurin-based cytotoxicity assay, Jurkat; set-up: species or system human; conditions: Homo sapiens, KMT2A-wt, childhood T-cell ALL
Procedure: as §2, §1

[30] = tested on: KMT2A-r PER-485 and KMT2A-wt REH cells; assay: 72-hour resazurin-based viability assay, PER-485 versus REH; assay type: cell-based, human
Procedure: as §1

Structure (SMILES): Nc1nc(Cl)nc2c1ncn2[C@@H]1O[C@H](CO)[C@@H](O)[C@H]1O [2-CADO, 2-chloroadenosine]
- response of 2-Cl-ATP-resistant cell lines THP-1 and REH compared with 2-Cl-ATP-sensitive KMT2A-r cells [1]: less responsive

Structure (SMILES): Nc1nc(Cl)nc2c1ncn2[C@@H]1O[C@H](COP(=O)(O)OP(=O)(O)OP(=O)(O)O)[C@@H](O)[C@H]1O [2-Cl-ATP, 2-chloroadenosine triphosphate]
- IC50 [2]: > 20 µM
- IC50 [3]: 4.3 µM
- IC50 [4]: 5.1 µM
- IC50 [5]: 13.4 µM
- IC50 [6]: 2.5 to 5.9 µM
- IC50 [7]: 2.6 µM
- IC50 [8]: 11.4 µM
- IC50 [9]: > 20 µM
- IC50 [10]: > 20 µM
- IC50 [11]: 3.5 µM
- IC50 [12]: 14.9 µM
- IC50 [13]: > 20 µM
- IC50 [14]: > 20 µM
- IC50 [15]: 3.5 µM
- IC50 ([16]; Donor 1): 5.4 µM
- IC50 ([16]; Donor 2): 4.8 µM
- IC50 ([16]; Donor 3): 4.2 µM
- IC50 [17]: 4.5 µM
- IC50 [18]: 5.6 µM
- IC50 [19]: > 20 µM
- IC50 [20]: 2.7 µM
- IC50 [21]: > 20 µM
- IC50 [22]: 4.4 µM
- IC50 ([23]; Homo sapiens): 2.5 µM
- IC50 [24]: > 20 µM
- IC50 [25]: > 20 µM
- induction of apoptosis (annexin V/7AAD) [26]: inducing apoptosis
- IC50 ([27]; Homo sapiens, RS4-11, 72 h): 5.8 µM
- IC50 [27]: 5.9 µM
- IC50 [28]: > 20 µM
- IC50 [29]: > 20 µM

Structure (SMILES): CCCCCCCOc1ccc(O)cc1 [AC-45594]
- selective cytotoxicity towards KMT2A-r leukemia cells [30]: did not display selective cytotoxicity

Structure (SMILES): CN(C(=O)CN(CCO)CC(=O)N(C)C(C)(C)Cc1ccccc1)C(C)(C)Cc1ccccc1 [Oxethazaine, oxethazaine]
- IC50 [4]: 8.9 µM
- IC50 [8]: 10.6 µM
- IC50 [10]: 4.9 µM
- IC50 [18]: 3.8 µM
- IC50 [21]: > 20 µM
- IC50 ([23]; Homo sapiens): 3.6 µM
- IC50 [24]: 15 µM
- IC50 ([27]; Homo sapiens, RS4-11, 72 h): 9 µM
- IC50 [29]: 18.9 µM

Structure (SMILES): Nc1nc(Cl)nc2c1ncn2[C@H]1C[C@H](O)[C@@H](CO)O1 [cladribine]
- response of 2-Cl-ATP-resistant cell lines THP-1 and REH compared with 2-Cl-ATP-sensitive KMT2A-r cells [1]: less responsive

Structure (SMILES): O=C(O)c1cc2c(cn1)[nH]c1ccccc12 [β-CCB, β-carboline-3-carboxylate]
- IC50 [23]: 2.6 µM
